Counter-ions that a name gives are not always drawn. Each block holds one compound with its values, some of them ahead of it. Calls of active or inactive are those of the source. The calls are words filed in the database; no cut-off is given here.
How the values were obtained:
[1] = Solubility of the compound in […] ethanol/[…] Tween-80 at 1 mg; format: physicochemical
Tubulin (Homo sapiens) [2] = target: T1, Tubulin (Homo sapiens) (UniProt P68371+Q9H4B7+P0DPH7+P68366+Q13509+Q71U36+P04350+Q3ZCM7+P07437+P68363+Q9BQE3+Q6PEY2+Q13885+Q9BVA1+Q9BUF5); experiment: Binding affinity to tubulin in human HepG2 cells assessed as inhibition of microtubule network formation in cytosol at 100 nM after 16 to 24 hrs by DAPI staining-based immunofluorescence microscopy; format: cell-based
Tubulin (Homo sapiens) [3] = target: T1, Tubulin (Homo sapiens); experiment: Binding affinity to tubulin in human HepG2 cells assessed as induction of abnormal chromosomal aggregation at 100 nM after 16 to 24 hrs by DAPI staining-based immunofluorescence microscopy; format: cell-based
SK-OV-3 = experiment: Antiproliferative activity against human SKOV3 cells after 24 hrs by MTT assay; format: functional, cell-based; details: SK-OV-3, 24 h
HCT-116 = experiment: Antiproliferative activity against human HCT116 cells after 24 hrs by MTT assay; format: functional, cell-based; details: HCT-116, 24 h
HepG2 = experiment: cells; details: Homo sapiens, HepG2, 24 h
Description: Antiproliferative activity against human HepG2 cells after 24 hrs by MTT assay

A2780/Taxol [4] = experiment: Cytotoxicity against beta-tubulin 3 overexpressing human A2780T cells assessed as reduction in cell growth after 24 hrs by MTT assay; format: functional, cell-based
HCT-8 [5] = experiment: Cytotoxicity against vinblastine resistant/P-gp overexpressing human HCT8 cells assessed as reduction in cell growth after 24 hrs by MTT assay; format: functional, cell-based; details: HCT-8, 24 h
NCI/ADR-RES [6] = experiment: Cytotoxicity against P-gp overexpressing human MCF7/ADR cells assessed as reduction in cell growth after 24 hrs by MTT assay; format: functional, cell-based
NCI/ADR-RES [7] = experiment: Antitumor activity against P-gp overexpressing human MCF7/ADR cells xenografted in mouse assessed as tumor growth inhibition at 4 mg/kg, iv qd administered every 2 days measured during compound dosing; format: functional; details: 48 h, read-out: TGI
[8] = Toxicity in mouse xenografted with P-gp overexpressing human MCF7/ADR cells assessed as body weight loss at 4 mg/kg, iv qd administered every 2 days measured during compound dosing; format: organism-based; details: in vivo, 48 h
[9] = Toxicity in mouse xenografted with human H460 cells assessed as body weight loss at 2.5 to 5 mg/kg, iv qd administered every 2 days measured daily during compound dosing; format: organism-based; details: in vivo, 48 h
[10] = Toxicity in mouse xenografted with human H460 cells assessed as mortality at 2.5 to 5 mg/kg, iv qd administered every 2 days measured daily during compound dosing; format: organism-based; details: in vivo, 48 h
Tubulin (Sus scrofa) [11] = target: T2, Tubulin (Sus scrofa) (UniProt P02554+P02550); experiment: Inhibition of porcine brain tubulin polymerization at 10 uM preincubated for 5 mins followed by GTP addition measured every 2 mins by spectrophotometry
T2 sequence (P02550 whole entry, looked up): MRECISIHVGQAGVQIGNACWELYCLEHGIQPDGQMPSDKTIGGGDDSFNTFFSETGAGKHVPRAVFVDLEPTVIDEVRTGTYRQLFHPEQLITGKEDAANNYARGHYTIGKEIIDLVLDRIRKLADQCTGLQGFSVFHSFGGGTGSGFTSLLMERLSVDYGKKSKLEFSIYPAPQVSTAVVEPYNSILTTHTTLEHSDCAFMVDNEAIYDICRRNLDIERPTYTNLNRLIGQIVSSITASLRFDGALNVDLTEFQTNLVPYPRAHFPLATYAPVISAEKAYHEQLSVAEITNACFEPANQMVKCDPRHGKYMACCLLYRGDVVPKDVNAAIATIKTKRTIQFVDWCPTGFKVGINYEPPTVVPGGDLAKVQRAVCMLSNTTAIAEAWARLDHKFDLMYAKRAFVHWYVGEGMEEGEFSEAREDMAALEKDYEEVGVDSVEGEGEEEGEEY
T2 sequence (P02554 whole entry, looked up): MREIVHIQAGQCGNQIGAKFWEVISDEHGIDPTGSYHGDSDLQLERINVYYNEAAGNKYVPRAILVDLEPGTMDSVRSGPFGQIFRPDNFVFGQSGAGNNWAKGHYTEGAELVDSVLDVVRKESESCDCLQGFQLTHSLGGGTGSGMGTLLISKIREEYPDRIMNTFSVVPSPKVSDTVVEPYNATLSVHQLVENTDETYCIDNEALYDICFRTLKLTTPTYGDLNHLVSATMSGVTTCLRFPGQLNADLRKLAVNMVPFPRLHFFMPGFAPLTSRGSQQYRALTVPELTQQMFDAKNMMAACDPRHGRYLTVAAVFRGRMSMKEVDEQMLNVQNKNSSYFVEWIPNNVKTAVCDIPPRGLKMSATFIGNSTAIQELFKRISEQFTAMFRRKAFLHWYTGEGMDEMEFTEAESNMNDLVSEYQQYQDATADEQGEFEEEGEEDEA

[12] = Toxicity in mouse allografted with mouse C26 cells assessed as body weight loss at 2.5 to 5 mg/kg, iv qd administered every 2 days measured daily during compound dosing; format: organism-based; details: in vivo, 48 h
[13] = Toxicity in mouse allografted with mouse C26 cells assessed as mortality at 2.5 to 5 mg/kg, iv qd administered every 2 days measured daily during compound dosing; format: organism-based; details: in vivo, 48 h
Tubulin (Homo sapiens) [14] = target: T1, Tubulin (Homo sapiens); experiment: Binding affinity to microtubule in human HepG2 cells assessed as bundling of microtubule fibers near nucleus at 300 nM after 24 hrs by immunofluorescence staining-based confocal microscopy; format: cell-based
A2780/Taxol [15] = experiment: Antitumor activity against beta-tubulin 3 overexpressing human A2780T cells xenografted in mouse assessed as tumor growth inhibition at 30 mg/kg, iv qd administered once a week; format: functional; details: read-out: TGI
MCF7 [16] = experiment: Antitumor activity against human MCF7 cells xenografted in mouse assessed as tumor growth inhibition at 5 mg/kg, iv qd administered every 2 days measured during compound dosing; format: functional; details: 48 h, read-out: TGI
[17] = Toxicity in mouse xenografted with beta-tubulin 3 overexpressing human A2780T cells assessed as body weight loss at 30 mg/kg, iv qd administered once a week; format: organism-based; details: in vivo
[18] = Toxicity in mouse xenografted with beta-tubulin 3 overexpressing human A2780T cells assessed as abnormal behavior at 30 mg/kg, iv qd administered once a week; format: organism-based; details: in vivo
[19] = Toxicity in mouse xenografted with human MCF7 cells assessed as body weight loss at 5 mg/kg, iv qd administered every 2 days measured during compound dosing; format: organism-based; details: in vivo, 48 h
[20] = Toxicity in mouse xenografted with human MCF7 cells assessed as body weight loss at 24 mg/kg, iv qd administered once a week; format: organism-based; details: in vivo
Tubulin (Homo sapiens) [21] = target: T1, Tubulin (Homo sapiens); experiment: Inhibition of microtubule polymerization in human HepG2 cells after 24 hrs by immunofluorescence staining-based confocal microscopy; format: cell-based
Tubulin (Homo sapiens) [22] = target: T1, Tubulin (Homo sapiens); experiment: Binding affinity to microtubule in human HepG2 cells assessed as inhibition of spindle formation after 24 hrs by immunofluorescence staining-based confocal microscopy; format: cell-based
Tubulin (Sus scrofa) [23] = target: T2, Tubulin (Sus scrofa); experiment: Inhibition of porcine brain tubulin polymerization preincubated for 5 mins followed by GTP addition measured every 2 mins by spectrophotometry
[24] = target: Tubulin beta (Homo sapiens) (UniProt P68371+Q9H4B7+Q13509+P04350+Q3ZCM7+P07437+Q13885+Q9BVA1+Q9BUF5+A6NNZ2); experiment: Competitive binding affinity to beta-tubulin in human HepG2 cells assessed as disappearance of EBI-protein adducts preincubated for 2 hrs followed by EBI addition measured after […] by Western blot analysis; format: cell-based
HCT-8 [25] = experiment: Antiproliferative activity against human HCT8 cells after 24 hrs by MTT assay; format: functional, cell-based; details: HCT-8, 24 h
MCF7 [26] = experiment: cells; details: Homo sapiens, MCF7, 24 h
Description: Antiproliferative activity against human MCF7 cells after 24 hrs by MTT assay

solubility [1]: Insoluble
SMILES: CC/C=C(\C)C(=O)Nc1cc(N(C)c2cc(=O)oc3ccccc23)ccc1OC

solubility [1]: Soluble
inhibition of microtubule network formation (active/inactive) (Tubulin (Homo sapiens) [2]): Active
Activity (Tubulin (Homo sapiens) [3]): Active
SMILES: COC(=O)CCCC(=O)Nc1cc(N(C)c2cc(=O)oc3ccccc23)ccc1OC

solubility [1]: Insoluble
SMILES: CCOC(=O)CCC(=O)Nc1cc(N(C)c2cc(=O)oc3ccccc23)ccc1OC

IC50 (SK-OV-3): > 5 µM
IC50 (HCT-116): > 5 µM
IC50 (HepG2): > 5 µM
SMILES: COc1ccc(-c2ccc(-c3cc(=O)oc4cc(OC)ccc34)s2)cc1

solubility [1]: Insoluble
SMILES: C=CC(=O)Oc1cc(N(C)c2cc(=O)oc3ccccc23)ccc1OC

solubility [1]: Insoluble
SMILES: COc1ccc(N(C)c2cc(=O)oc3ccccc23)cc1OC(=O)C(C)(C)C

solubility [1]: Insoluble
SMILES: CCCCCC(=O)Nc1cc(N(C)c2cc(=O)oc3ccccc23)ccc1OC

solubility [1]: Soluble
inhibition of microtubule network formation (active/inactive) (Tubulin (Homo sapiens) [2]): Active
Activity (Tubulin (Homo sapiens) [3]): Active
SMILES: C/C=C/C(=O)Oc1cc(N(C)c2cc(=O)oc3ccccc23)ccc1OC

solubility [1]: Insoluble
SMILES: COc1ccc(N(C)c2cc(=O)oc3ccccc23)cc1O

solubility [1]: Insoluble
SMILES: CCCCC(=O)Oc1cc(N(C)c2cc(=O)oc3ccccc23)ccc1OC

solubility [1]: Insoluble
SMILES: COc1ccc(N(C)c2cc(=O)oc3ccccc23)cc1OC(=O)CC(C)(C)C

IC50 (SK-OV-3): > 5 µM
IC50 (HCT-116): > 5 µM
IC50 (HepG2): > 5 µM
SMILES: COc1ccc(N(C)c2cc(=O)oc3ccccc23)cc1OCCN1CCOCC1

solubility [1]: Insoluble
SMILES: CCCCCC(=O)Oc1cc(N(C)c2cc(=O)oc3ccccc23)ccc1OC

solubility [1]: Soluble
inhibition of microtubule network formation (active/inactive) (Tubulin (Homo sapiens) [2]): Active
Activity (Tubulin (Homo sapiens) [3]): Active
SMILES: CC/C=C(\C)C(=O)Oc1cc(N(C)c2cc(=O)oc3ccccc23)ccc1OC

solubility [1]: Insoluble
SMILES: CCOC(=O)CCC(=O)Oc1cc(N(C)c2cc(=O)oc3ccccc23)ccc1OC

solubility [1]: Insoluble
SMILES: COc1ccc(N(C)c2cc(=O)oc3ccccc23)cc1OC(C)=O

solubility [1]: Insoluble
SMILES: C/C=C/C(=O)Nc1cc(N(C)c2cc(=O)oc3ccccc23)ccc1OC

IC50 (HCT-8 [25]): 0.0148 µM
IC50 (MCF7 [26]): 0.0547 µM
SMILES: CC[C@]1(O)C[C@@H]2CN(CCc3c([nH]c4ccccc34)[C@@](C(=O)OC)(c3cc4c(cc3OC)N(C)[C@H]3[C@@](O)(C(=O)OC)[C@H](OC(C)=O)[C@]5(CC)C=CCN6CC[C@]43[C@@H]65)C2)C1 [VINBLASTINE]
IC50 (A2780/Taxol [4]): 6.9 µM
IC50 (HCT-8 [5]): 5.21 µM
IC50 (NCI/ADR-RES [6]): 5.85 µM

The next lines start with the compound.

SMILES: CCCCCCCCCC(=O)Nc1cc(N(C)c2cc(=O)oc3ccccc23)ccc1OC
solubility [1]: Insoluble

SMILES: COc1cc2c(c(OC)c1OC)-c1ccc(OC)c(=O)cc1[C@@H](NC(C)=O)CC2 [COLCHICINE]
IC50 (SK-OV-3): 0.0519 µM
IC50 (A2780/Taxol [4]): 8.67 µM
IC50 (HCT-8 [5]): 2.43 µM
IC50 (HepG2): 0.0428 µM

SMILES: COc1ccc(N(C)c2cc(=O)oc3ccccc23)cc1OC(=O)CBr
solubility [1]: Insoluble

SMILES: COc1ccc(N(C)c2cc(=O)oc3ccccc23)cc1N
solubility [1]: Insoluble

SMILES: COc1ccc(N(C)c2cc(=O)oc3ccccc23)cc1OC(=O)CCCCCl
solubility [1]: Soluble
inhibition of microtubule network formation (active/inactive) (Tubulin (Homo sapiens) [2]): Active
Activity (Tubulin (Homo sapiens) [3]): Active

SMILES: COc1cccc2c1C(=O)c1c(O)c3c(c(O)c1C2=O)C[C@@](O)(C(=O)CO)C[C@@H]3O[C@H]1C[C@H](N)[C@H](O)[C@H](C)O1 [DOXORUBICIN HYDROCHLORIDE]
IC50 (NCI/ADR-RES [6]): 8.15 µM
inhibition in vivo at 4 mg/kg (NCI/ADR-RES [7]): 33.3%
Activity [8]: Toxic

SMILES: CCCCCCCCCC(=O)Oc1cc(N(C)c2cc(=O)oc3ccccc23)ccc1OC
solubility [1]: Insoluble

SMILES: COC(=O)CCCC(=O)Oc1cc(N(C)c2cc(=O)oc3ccccc23)ccc1OC
solubility [1]: Soluble
inhibition of microtubule network formation (active/inactive) (Tubulin (Homo sapiens) [2]): Active
Activity (Tubulin (Homo sapiens) [3]): Active

SMILES: COc1ccc(N(C)c2nc(C)nc3ccccc23)cc1 [VERUBULIN]
IC50 (SK-OV-3): 0.0032 µM
IC50 (HCT-116): 0.0043 µM
Activity [9]: Toxic
Activity [10]: Toxic
inhibition (Tubulin (Sus scrofa) [11]): Active
Activity [12]: Toxic
Activity [13]: Toxic
IC50 (HepG2): 0.0046 µM

SMILES: COc1ccc2c(-c3ccc(-c4ccc5c(c4)OCO5)s3)cc(=O)oc2c1
IC50 (SK-OV-3): > 5 µM
IC50 (HCT-116): > 5 µM
IC50 (HepG2): > 5 µM

SMILES: COc1ccc(N(C)c2cc(=O)oc3ccccc23)cc1OC(=O)C=C(C)C
solubility [1]: Insoluble

SMILES: COc1ccc(N(C)c2cc(=O)oc3ccccc23)cc1OC(=O)C1CC1
solubility [1]: Insoluble

SMILES: CC(=O)O[C@H]1C(=O)[C@@]2(C)[C@H]([C@H](OC(=O)c3ccccc3)[C@]3(O)C[C@H](OC(=O)[C@H](O)[C@@H](NC(=O)c4ccccc4)c4ccccc4)C(C)=C1C3(C)C)[C@]1(OC(C)=O)CO[C@@H]1C[C@@H]2O [PACLITAXEL]
IC50 (A2780/Taxol [4]): 56.6 µM
IC50 (HCT-8 [5]): 0.189 µM
IC50 (NCI/ADR-RES [6]): 9.15 µM
Activity (Tubulin (Homo sapiens) [14]): Active
inhibition in vivo at 30 mg/kg (A2780/Taxol [15]): 37.7%
inhibition in vivo at 5 mg/kg (MCF7 [16]): 59.2%
Activity [17]: Toxic
Activity [18]: Toxic
Activity [19]: Toxic
Activity [20]: Toxic

SMILES: CCC(=O)Oc1cc(N(C)c2cc(=O)oc3ccccc23)ccc1OC
solubility [1]: Insoluble

SMILES: C=C(C)C(=O)Oc1cc(N(C)c2cc(=O)oc3ccccc23)ccc1OC
solubility [1]: Insoluble

SMILES: COc1ccc(N(C)c2cc(=O)oc3ccccc23)cc1NC(=O)CCCCCl
solubility [1]: Soluble
inhibition of microtubule network formation (active/inactive) (Tubulin (Homo sapiens) [2]): Active
Activity (Tubulin (Homo sapiens) [3]): Active
inhibition (Tubulin (Homo sapiens) [21]): Dose-dependent effect
inhibition (Tubulin (Homo sapiens) [22]): Dose-dependent effect
inhibition (Tubulin (Sus scrofa) [23]): Dose-dependent effect
Activity [24]: Dose-dependent effect

SMILES: CCC/C=C/C(=O)Oc1cc(N(C)c2cc(=O)oc3ccccc23)ccc1OC
solubility [1]: Insoluble

SMILES: COc1ccc(N(C)c2cc(=O)oc3ccccc23)cc1OC(=O)CCl
solubility [1]: Insoluble

SMILES: COc1ccc2c(N(C)c3ccc(OC)c(O)c3)cc(=O)oc2c1
solubility [1]: Insoluble

SMILES: C=CCCC(=O)Oc1cc(N(C)c2cc(=O)oc3ccccc23)ccc1OC
solubility [1]: Insoluble

SMILES: C=CCCC(=O)Nc1cc(N(C)c2cc(=O)oc3ccccc23)ccc1OC
solubility [1]: Soluble
inhibition of microtubule network formation (active/inactive) (Tubulin (Homo sapiens) [2]): Active
Activity (Tubulin (Homo sapiens) [3]): Active

— ChEMBL document CHEMBL4425100, “Design, Synthesis, and Evaluation of in Vitro and in Vivo Anticancer Activity of 4-Substituted Coumarins: A Novel Class of Potent Tubulin Polymerization Inhibitors” (J Med Chem, 2016)
